Reference: ChEMBL document CHEMBL3301546, “MMV Malaria Box yeast growth screening”

Experiments:
Assay type in all cases: functional
[1] = system: Saccharomyces cerevisiae; assay: (§1) MMV: Growth assays were conducted using the prototrophic S. cerevisiae strain JHY222. Each MMV compound (0.1 mM) was tested in minimal media containing dextrose as a carbon source (Yeast Nitrogen Base, Dextrose; YNBD). The growth rate in the presence of each MMV compound was calculated as follows: (i) the first 10 OD readings were averaged and subtracted from all OD readings of the corresponding curve to set the baseline of the growth curve to zero, and (ii) the area under the curve (AUC) was then calculated as the sum of all OD readings. […] A relative growth value was calculated as follows: AUC(DRUG) - AUC(DMSO)/AUC(DMSO); where AUC(DMSO) represents growth measured in a DMSO control well that was on the same microtiter plate of the drug-treated culture.
[2] = system: Saccharomyces cerevisiae; assay: as §1, with “ethanol and glycerol” for “dextrose”, “as” for “as a”, “sources” for “source”, “Ethanol, Glycerol; YNBEG).” for “Dextrose; YNBD).”
[3] = system: Saccharomyces cerevisiae; assay: as §1, with “rich” for “minimal”, “Extract, Peptone,” for “Nitrogen Base,”, “YPD).” for “YNBD).”

SMILES	Relative Growth [1]	Relative Growth [2]	Relative Growth [3]
COc1ccc(Nc2nc(N/N=C/c3ccc(O)cc3)nc(Nc3ccc([N+](=O)[O-])cc3)n2)cc1	0.2735	0.0812	0.0149
COc1ccc(-c2cc3c(nn2)-c2ccccc2C3=O)cc1	-0.3119	-0.8829	0.0333
O=C(NC1CCN(Cc2ccccc2)CC1)c1cc2nc(-c3ccc(Cl)s3)cc(C(F)(F)F)n2n1	0.0049	-0.0027	0.0199
O=C1c2ccccc2-c2nnc(-c3ccc(Br)cc3)cc21	0.0312	0.1282	-0.0452
Cc1nc2ccccc2c(O)c1CC=C(Cl)Cl	-0.0687	-1.0138	-0.1226
COc1cccc(Nc2nc(N)c3ccccc3n2)c1.Cl	0.0154	-0.036	0.0358
COC(=O)c1ccc(C2C3=C(O)CC(c4ccc(F)cc4)CC3=Nc3ccccc3N2C(=O)c2ccccc2)cc1 (stereo not given)	0.2377	0.1245	-0.0053
CC(=O)c1ccc(NC(=O)CSc2nc(-c3ccccc3Cl)ns2)cc1	0.0088	0.0011	-0.0294
CC(Oc1ccc(NC(=O)c2cccs2)cc1)C(=O)c1ccc(Cl)cc1 (stereo not given)	0.1664	0.0184	0.0426
Cl.c1ccc2c(NCCCCCCNc3c4c(nc5ccccc35)CCCC4)c3c(nc2c1)CCCC3	-0.2454	-0.2596	-0.0331
Brc1ccc(Nc2nc3ccccc3nc2Nc2ccc(Br)cc2)cc1	-0.0577	-0.5592	-0.9981
O=C(NCCCN1CCC(N2CCCCC2)CC1)C1=Cc2cc(Br)ccc2OC1	-0.0044	-0.1063	-0.0702
COc1ccc(CCn2c(=N)c(C(=O)NCc3cccnc3)cc3c(=O)n4cccc(C)c4nc32)cc1	0.0391	-0.1242	0.0999
CCCCOC(=O)c1ccc(Nc2cc(C)nc3ccc(OC)cc23)cc1	-0.0919	-0.3112	-0.1158
Cl.Cn1c(=O)n(C)c2cc(CNCCNc3ccnc4cc(Cl)ccc34)ccc21	0.301	0.2785	-0.0297
Cc1cc(Nc2ccc(OCc3ccccc3)cc2)nc2cc(O)ccc12	-0.1895	0.3239	0.0868
COc1ccc(Nc2cc(C)nc(NCc3ccccc3)n2)cc1	0.0189	0.0325	0.0201
Cc1ccc(OCCCCCCNCCO)c(C)c1	0.026	-0.0581	-0.034
OC(Cn1nnc2ccccc21)Cn1c2ccc(Br)cc2c2cc(Br)ccc21 (stereo not given)	0.0887	0.1229	0.0859
CCOc1ccc(-n2cc(-c3ccccc3)c3c(SCc4cc(C)ccc4C)ncnc32)cc1	-0.0883	-0.2113	-0.0534
Cc1ccc(C)c(Cn2c(N3CCC(C(=O)NCc4cccs4)CC3)nc3ccccc32)c1	-0.0285	-0.021	-0.4893
Cc1ccccc1OCCSc1nc2ccc(NC(=O)c3cccs3)cc2s1	-0.1829	-0.9335	-0.0038
CC1CCN(Cc2c(O)ccc3cc(-c4nc5ccccc5s4)c(=O)oc23)CC1	-0.0399	-0.3243	-0.0068
Cc1ccc2cc3c(N)c4c(C)ccc(C)c4nc3nc2c1	0.1003	0.0509	0.0134
CC(C)CCNCC(O)Cn1c2ccccc2c2ccccc21.Cl (stereo not given)	-0.9941	-1.0262	-0.9987
O=C(Nc1ccc(C23CC4CC(CC(c5ccccc5)(C4)C2)C3)cc1)c1cccs1	-0.46	-0.1427	-1.0024
CCN(CC)CCCNc1ccnc2cc3ccccc3cc12	0.0381	0.1561	-0.9889
Cc1ccccc1OCCSc1nc2ccc(NC(=O)c3ccccc3)cc2s1	-0.1178	-0.0554	-0.3917

SMILES	Relative Growth [1]	Relative Growth [2]	Relative Growth [3]
O=C(Nc1ccc(-c2nc3cc4ccccc4cc3[nH]2)cc1)c1cccc(Br)c1	0.0231	0.0139	-0.1256
Cc1ccc(Nc2nc(N)c3ccccc3n2)cc1Cl	-0.1031	-0.1803	-0.0022
Cc1ccc2nc(C)cc(Nc3cccc(C(F)(F)F)c3)c2c1.Cl	-0.0826	-0.1571	-0.0219
CC(C)(C)c1ccc(C(=O)Nc2c3c(nn2-c2cccc(Cl)c2)CSC3)cc1	-0.3492	-0.291	-0.0819
COc1ccc(N2CCN(C(CNC(=O)CC(C)(C)C)c3ccc4c(c3)OCO4)CC2)cc1 (stereo not given)	-0.0787	-0.1806	0.0032
COc1cccc(C(=O)NC(c2ccc(C)cc2)c2cc(Cl)c3cccnc3c2O)c1 (stereo not given)	0.017	0.1449	-0.0292
CCCCCCn1c(=N)n(CC(O)COc2cccc(C)c2)c2ccccc21.Cl (stereo not given)	-0.1558	-0.0105	-0.051
CCOC(=O)C1(Cc2ccccc2)CCN(Cc2cccc(OC)c2O)CC1	-0.0215	-0.0203	-0.0248
CCCOCc1cc(CN2CCN(c3cccc(Cl)c3)CC2)c(O)c2ncccc12	-0.0021	-0.1694	-0.0331
O=C(Cc1ccccc1)NC(c1ccc(Cl)cc1)c1c(O)ccc2ccccc12 (stereo not given)	-0.1217	0.0388	0.0198
CCOc1ccc2c(c1)CN(Cc1ccc(Cl)cc1)CO2	-0.0363	-0.0581	-0.0457
CC(C)(C)c1ccc2c(c1)CN(Cc1ccc(Cl)cc1)CO2	-0.1149	-0.1101	-0.9993
CCOc1ccc(Nc2ccnc3cc(Cl)ccc23)cc1	0.0274	0.0427	0.0185
Cc1cc(=O)oc2c1ccc1oc(C(=O)c3ccccc3)c(C)c12	-0.1287	-0.3574	0.0119
COc1ccc(CN2CCN(Cc3ccccc3)CC2)c(O)c1	0.0478	0.0718	-0.0119
COc1ccc2c(c1OC)C(=O)N1c3ccccc3N=C(c3ccc(C)cc3)CC21 (stereo not given)	-1.0612	-1.0982	-0.0173
CCCCCCc1cc(O)c2c3c(c(=O)oc2c1)CCC(C)C3 (stereo not given)	-0.0738	-0.0677	-0.0517
CCOc1ccc(Nc2c3ccccc3nc3ccccc23)cc1.Cl	0.0198	0.0301	-0.0047
OC1=C2C(=Nc3ccccc3SC2c2ccc(Br)cc2)c2ccccc21 (stereo not given)	0.0198	0.1502	-0.0041
COc1ccc(C)c2sc(N(Cc3cccnc3)C(=O)c3ccc(C#N)cc3)nc12	-0.0341	0.0255	-0.0087
CCCCCCc1cc2cc(-c3nc4ccccc4[nH]3)c(=Nc3ccccc3C)oc2cc1O	0.1107	-0.1213	-0.0113
CCOC(=O)C1=CN(C)C=C(C(=O)OCC)C1c1cc(Br)c(OCC)c(OC)c1	0.2106	-0.4757	-0.1817
CCN1CCN(c2c(C(=O)c3ccccc3)cnc3cc(OC)c(OC)cc23)CC1	0.0169	-0.2869	-0.0459
Cc1ccc(S(=O)(=O)c2c(COC(=O)c3cccc(C)c3)c(-c3ccccc3)nn2C)cc1	-0.0588	-0.0042	0.0124
CN1CCN(c2nc(Nc3ccc(O)cc3)nc3ccccc23)CC1.Cl	-0.0206	-0.0432	-0.0029
CCOC(=O)c1c[nH]c2c(CC)cccc2c1=O	-0.1466	-0.0989	-0.0665
CCCCc1c(CCC)c(=N)c2ccccc2n1C.I	0.0105	0.0643	-0.0798
